Reference: the NIST ThermoML archive (doi:10.1021/je800786k)
± gives the expanded uncertainty stated by the source.

Conditions: Liquid, Vibrating tube method

CCCCCCC(C)N (stereo not given) [1-methylheptylamine]
Conditions	mass density [kg/m3]
293.15 K, 100 kPa	772 ± 1
293.15 K, 10000 kPa	778.7 ± 1.1
293.15 K, 20000 kPa	784.8 ± 1.1
293.15 K, 30000 kPa	790.6 ± 1.1
293.15 K, 40000 kPa	796.1 ± 1.1
293.15 K, 50000 kPa	801.2 ± 1.1
293.15 K, 60000 kPa	806 ± 1.2
293.15 K, 70000 kPa	810.6 ± 1.2
293.15 K, 80000 kPa	815 ± 1.2
293.15 K, 90000 kPa	819.1 ± 1.2
293.15 K, 100000 kPa	823.2 ± 1.3
293.15 K, 110000 kPa	826.9 ± 1.3
293.15 K, 120000 kPa	830.6 ± 1.3
293.15 K, 130000 kPa	834.2 ± 1.3
293.15 K, 140000 kPa	837.6 ± 1.4
303.15 K, 100 kPa	764 ± 1.1
303.15 K, 10000 kPa	771.3 ± 1.1
303.15 K, 20000 kPa	777.8 ± 1.1
303.15 K, 30000 kPa	783.8 ± 1.1
303.15 K, 40000 kPa	789.2 ± 1.1
303.15 K, 50000 kPa	794.5 ± 1.1
303.15 K, 60000 kPa	799.5 ± 1.2
303.15 K, 70000 kPa	804.2 ± 1.2
303.15 K, 80000 kPa	808.7 ± 1.2
303.15 K, 90000 kPa	813 ± 1.3
303.15 K, 100000 kPa	817.1 ± 1.3
303.15 K, 110000 kPa	821 ± 1.3
303.15 K, 120000 kPa	824.8 ± 1.3
303.15 K, 130000 kPa	828.5 ± 1.4
303.15 K, 140000 kPa	832 ± 1.4
313.15 K, 100 kPa	755.8 ± 1.1
313.15 K, 10000 kPa	763.5 ± 1.1
313.15 K, 20000 kPa	770.4 ± 1.1
313.15 K, 30000 kPa	776.7 ± 1.1
313.15 K, 40000 kPa	782.5 ± 1.1
313.15 K, 50000 kPa	788.1 ± 1.1
313.15 K, 60000 kPa	793.2 ± 1.2
313.15 K, 70000 kPa	798.1 ± 1.2
313.15 K, 80000 kPa	802.7 ± 1.2
313.15 K, 90000 kPa	807.1 ± 1.3
313.15 K, 100000 kPa	811.4 ± 1.3
313.15 K, 110000 kPa	815.5 ± 1.3
313.15 K, 120000 kPa	819.4 ± 1.4
313.15 K, 130000 kPa	823.1 ± 1.4
313.15 K, 140000 kPa	826.7 ± 1.4
323.15 K, 100 kPa	748.1 ± 1.1
323.15 K, 10000 kPa	756 ± 1.1
323.15 K, 20000 kPa	763.2 ± 1.1
323.15 K, 30000 kPa	769.9 ± 1.1
323.15 K, 40000 kPa	776 ± 1.1
323.15 K, 50000 kPa	781.6 ± 1.2
323.15 K, 60000 kPa	787.1 ± 1.2
323.15 K, 70000 kPa	792.2 ± 1.2
323.15 K, 80000 kPa	797 ± 1.2
323.15 K, 90000 kPa	801.5 ± 1.3
323.15 K, 100000 kPa	805.9 ± 1.3
323.15 K, 110000 kPa	810.1 ± 1.3
323.15 K, 120000 kPa	814.1 ± 1.4
323.15 K, 130000 kPa	818 ± 1.4
323.15 K, 140000 kPa	821.6 ± 1.4
333.15 K, 100 kPa	739.6 ± 1.1
333.15 K, 10000 kPa	748.1 ± 1.1
333.15 K, 20000 kPa	755.5 ± 1.1
333.15 K, 30000 kPa	762.6 ± 1.1
333.15 K, 40000 kPa	769 ± 1.1
333.15 K, 50000 kPa	775 ± 1.2
333.15 K, 60000 kPa	780.6 ± 1.2
333.15 K, 70000 kPa	785.8 ± 1.2
333.15 K, 80000 kPa	790.9 ± 1.3
333.15 K, 90000 kPa	795.5 ± 1.3
333.15 K, 100000 kPa	800 ± 1.3
333.15 K, 110000 kPa	804.4 ± 1.4
333.15 K, 120000 kPa	808.5 ± 1.4
333.15 K, 130000 kPa	812.5 ± 1.4
333.15 K, 140000 kPa	816.3 ± 1.5
343.15 K, 100 kPa	731.5 ± 1.1
343.15 K, 10000 kPa	740.5 ± 1.1
343.15 K, 20000 kPa	748.6 ± 1.1
343.15 K, 30000 kPa	756 ± 1.1
343.15 K, 40000 kPa	762.7 ± 1.1
343.15 K, 50000 kPa	768.9 ± 1.2
343.15 K, 60000 kPa	774.7 ± 1.2
343.15 K, 70000 kPa	780.2 ± 1.2
343.15 K, 80000 kPa	785.3 ± 1.3
343.15 K, 90000 kPa	790.2 ± 1.3
343.15 K, 100000 kPa	794.9 ± 1.3
343.15 K, 110000 kPa	799.2 ± 1.4
343.15 K, 120000 kPa	803.4 ± 1.4
343.15 K, 130000 kPa	807.5 ± 1.4
343.15 K, 140000 kPa	811.4 ± 1.5
353.15 K, 100 kPa	723.2 ± 1.1
353.15 K, 10000 kPa	733 ± 1.1
353.15 K, 20000 kPa	741.6 ± 1.1
353.15 K, 30000 kPa	749.3 ± 1.1
353.15 K, 40000 kPa	756.2 ± 1.1
353.15 K, 50000 kPa	762.7 ± 1.2
353.15 K, 60000 kPa	768.7 ± 1.2
353.15 K, 70000 kPa	774.4 ± 1.2
353.15 K, 80000 kPa	779.7 ± 1.3
353.15 K, 90000 kPa	784.7 ± 1.3
353.15 K, 100000 kPa	789.5 ± 1.4
353.15 K, 110000 kPa	794.1 ± 1.4
353.15 K, 120000 kPa	798.4 ± 1.4
353.15 K, 130000 kPa	802.3 ± 1.5
353.15 K, 140000 kPa	806.3 ± 1.5
363.15 K, 100 kPa	714.7 ± 1.1
363.15 K, 10000 kPa	724.9 ± 1.1
363.15 K, 20000 kPa	734 ± 1.1
363.15 K, 30000 kPa	742 ± 1.1
363.15 K, 40000 kPa	749.3 ± 1.2
363.15 K, 50000 kPa	756.1 ± 1.2
363.15 K, 60000 kPa	762.4 ± 1.2
363.15 K, 70000 kPa	768.3 ± 1.3
363.15 K, 80000 kPa	773.8 ± 1.3
363.15 K, 90000 kPa	779 ± 1.3
363.15 K, 100000 kPa	783.9 ± 1.4
363.15 K, 110000 kPa	788.5 ± 1.4
363.15 K, 120000 kPa	793 ± 1.4
363.15 K, 130000 kPa	797.3 ± 1.5
363.15 K, 140000 kPa	801.4 ± 1.5
373.15 K, 100 kPa	706 ± 1.1
373.15 K, 10000 kPa	717.2 ± 1.1
373.15 K, 20000 kPa	726.6 ± 1.1
373.15 K, 30000 kPa	735.2 ± 1.1
373.15 K, 40000 kPa	742.9 ± 1.2
373.15 K, 50000 kPa	749.9 ± 1.2
373.15 K, 60000 kPa	756.8 ± 1.2
373.15 K, 70000 kPa	762.8 ± 1.3
373.15 K, 80000 kPa	768.5 ± 1.3
373.15 K, 90000 kPa	773.8 ± 1.3
373.15 K, 100000 kPa	778.9 ± 1.4
373.15 K, 110000 kPa	783.7 ± 1.4
373.15 K, 120000 kPa	788.3 ± 1.5
373.15 K, 130000 kPa	792.8 ± 1.5
373.15 K, 140000 kPa	796.8 ± 1.5
383.15 K, 100 kPa	697.6 ± 1.1
383.15 K, 10000 kPa	709.4 ± 1.1
383.15 K, 20000 kPa	719.5 ± 1.1
383.15 K, 30000 kPa	728.5 ± 1.1
383.15 K, 40000 kPa	736.4 ± 1.2
383.15 K, 50000 kPa	743.8 ± 1.2
383.15 K, 60000 kPa	750.6 ± 1.2
383.15 K, 70000 kPa	756.8 ± 1.3
383.15 K, 80000 kPa	762.7 ± 1.3
383.15 K, 90000 kPa	768.1 ± 1.4
383.15 K, 100000 kPa	773.3 ± 1.4
383.15 K, 110000 kPa	778.3 ± 1.4
383.15 K, 120000 kPa	783 ± 1.5
383.15 K, 130000 kPa	787.5 ± 1.5
383.15 K, 140000 kPa	791.8 ± 1.6
393.15 K, 100 kPa	689 ± 1.1
393.15 K, 10000 kPa	701.6 ± 1.1
393.15 K, 20000 kPa	712.3 ± 1.1
393.15 K, 30000 kPa	721.7 ± 1.2
393.15 K, 40000 kPa	730 ± 1.2
393.15 K, 50000 kPa	737.9 ± 1.2
393.15 K, 60000 kPa	744.9 ± 1.3
393.15 K, 70000 kPa	751.4 ± 1.3
393.15 K, 80000 kPa	757.5 ± 1.3
393.15 K, 90000 kPa	763.2 ± 1.4
393.15 K, 100000 kPa	768.6 ± 1.4
393.15 K, 110000 kPa	773.6 ± 1.4
393.15 K, 120000 kPa	778.4 ± 1.5
393.15 K, 130000 kPa	782.8 ± 1.5
393.15 K, 140000 kPa	787.2 ± 1.6
403.15 K, 100 kPa	680.1 ± 1.2
403.15 K, 10000 kPa	693.5 ± 1.2
403.15 K, 20000 kPa	705 ± 1.2
403.15 K, 30000 kPa	714.8 ± 1.2
403.15 K, 40000 kPa	723.5 ± 1.2
403.15 K, 50000 kPa	731.5 ± 1.2
403.15 K, 60000 kPa	738.7 ± 1.3
403.15 K, 70000 kPa	745.4 ± 1.3
403.15 K, 80000 kPa	751.6 ± 1.3
403.15 K, 90000 kPa	757.5 ± 1.4
403.15 K, 100000 kPa	763.1 ± 1.4
403.15 K, 110000 kPa	768.3 ± 1.5
403.15 K, 120000 kPa	773.2 ± 1.5
403.15 K, 130000 kPa	777.9 ± 1.5
403.15 K, 140000 kPa	782.4 ± 1.6
